Results reported in patent publication US10821115B2, “Compounds that inhibit Mcl-1 protein” (priority 2017, dated 2020).
Read-outs that look alike come from different tables or passages of the source.

Experiments:
[1] = biological target: recombinant human Mcl-1 (residues 171-327) / Bim interaction (Homo sapiens (Human), UniProt Q07820); experiment: biochemical; assay type: binding; settings: TR-FRET, Mcl-1(171-327) / biotin-Bim (51-76); read-out: Mcl-1 HTRF IC50
[2] = test system: human multiple myeloma cell line, OPM-2; experiment: Cell viability assay (OPM-2 10 FBS), CellTiter-Glo; assay type: cell-based
Procedure, shortened: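 Serially diluted test compounds are incubated 16 h with cells (3000/well) in RPMI 1640 supplemented with 10% FBS. Viability is then measured by luminescence and IC50 calculated by 4-parameter logistic fit.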

[3] = Homo sapiens, OPM-2, 16 h, read-out: OPM-2 10% FBS IC50 IP, OPM-2 cells, 10% FBS, 16 h, CellTiter-Glo
[4] = read-out: OPM-2 10% FBS IC50 IP, OPM-2 cells, 10% FBS, 16 h, CellTiter-Glo

recombinant human Mcl-1 (residues 171-327) / Bim interaction, sequence (Q07820 171-327): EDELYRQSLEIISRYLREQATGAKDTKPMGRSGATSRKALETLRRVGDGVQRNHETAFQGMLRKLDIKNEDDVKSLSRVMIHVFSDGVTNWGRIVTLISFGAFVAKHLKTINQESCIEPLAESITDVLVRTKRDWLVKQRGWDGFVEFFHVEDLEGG

Structure (SMILES)	IC50 [1] [nM]	IC50 [2, 3] [nM]	IC50 [2, 4] [nM]
COc1ccc([C@@]2(O)/C=C/C[C@H](C)[C@@H](C)S(=O)(=O)NC(=O)c3ccc4c(c3)N(C[C@@H]3CC[C@H]32)C[C@@]2(CCCc3cc(Cl)ccc32)CO4)cn1 (single isomer, unassigned) [Example 100362]	0.888	2100	–
CO[C@@]1(C[C@@H](O)C(C)C)/C=C/C[C@H](C)[C@@H](C)S(=O)(=O)NC(=O)c2ccc3c(c2)N(C[C@@H]2CC[C@H]21)C[C@@]1(CCCc2cc(Cl)ccc21)CO3 (single isomer, unassigned) [Example 100366]	0.198	–	168
CO[C@@]1(C[C@@H](O)C(C)C)/C=C/C[C@H](C)[C@@H](C)S(=O)(=O)NC(=O)c2ccc3c(c2)N(C[C@@H]2CC[C@H]21)C[C@@]1(CCCc2cc(Cl)ccc21)CO3 (single isomer, unassigned) [Example 100367]	0.371	–	604
C[C@@H]1[C@@H](C)C/C=C/[C@@](O)(c2ccncc2F)[C@@H]2CC[C@H]2CN2C[C@@]3(CCCc4cc(Cl)ccc43)COc3ccc(cc32)C(=O)NS1(=O)=O (single isomer, unassigned) [Example 100370]	0.153	258	–
CO[C@@]1(c2cnccn2)/C=C/C[C@H](C)[C@@H](C)S(=O)(=O)NC(=O)c2ccc3c(c2)N(C[C@@H]2CC[C@H]21)C[C@@]1(CCCc2cc(Cl)ccc21)CO3 (single isomer, unassigned) [Example 100379]	0.06	71	–
C[C@@H]1[C@@H](C)C/C=C/[C@@](O)(c2ncccc2F)[C@@H]2CC[C@H]2CN2C[C@@]3(CCCc4cc(Cl)ccc43)COc3ccc(cc32)C(=O)NS1(=O)=O (single isomer, unassigned) [Example 100390]	0.186	649	–
C[C@@H]1[C@@H](C)C/C=C/[C@@](O)(c2ccncc2)[C@@H]2CC[C@H]2CN2C[C@@]3(CCCc4cc(Cl)ccc43)COc3ccc(cc32)C(=O)NS1(=O)=O (single isomer, unassigned) [Example 100392]	0.112	129	–
C[C@@H]1[C@@H](C)CCC[C@@](O)(C[C@H]2CCCN(C)C2)[C@@H]2CC[C@H]2CN2C[C@@]3(CCCc4cc(Cl)ccc43)COc3ccc(cc32)C(=O)NS1(=O)=O (single isomer, unassigned) [Example 100398]	0.618	457	–
C[C@@H]1[C@@H](C)CCC[C@](O)(C[C@H]2CCCN(C)C2)[C@@H]2CC[C@H]2CN2C[C@@]3(CCCc4cc(Cl)ccc43)COc3ccc(cc32)C(=O)NS1(=O)=O (single isomer, unassigned) [Example 100399]	0.28	2810	–
C[C@@H]1[C@@H](C)CCC[C@](O)(C[C@@H]2CCCN(C)C2)[C@@H]2CC[C@H]2CN2C[C@@]3(CCCc4cc(Cl)ccc43)COc3ccc(cc32)C(=O)NS1(=O)=O (single isomer, unassigned) [Example 100400]	0.838	1320	–
C[C@@H]1[C@@H](C)C/C=C/[C@@](O)(c2ccc(F)cn2)[C@@H]2CC[C@H]2CN2C[C@@]3(CCCc4cc(Cl)ccc43)COc3ccc(cc32)C(=O)NS1(=O)=O (single isomer, unassigned) [Example 100402]	0.098	133	–
Cc1ccc([C@]2(O)/C=C/C[C@H](C)[C@@H](C)S(=O)(=O)NC(=O)c3ccc4c(c3)N(C[C@@H]3CC[C@H]32)C[C@@]2(CCCc3cc(Cl)ccc32)CO4)cn1 (single isomer, unassigned) [Example 100408]	1.35	5620	–
C[C@@H]1[C@@H](C)C/C=C/[C@@](O)(c2cncnc2)[C@@H]2CC[C@H]2CN2C[C@@]3(CCCc4cc(Cl)ccc43)COc3ccc(cc32)C(=O)NS1(=O)=O (single isomer, unassigned) [Example 100434]	0.162	482	–
Cc1ccc([C@]2(O)/C=C/C[C@H](C)[C@@H](C)S(=O)(=O)NC(=O)c3ccc4c(c3)N(C[C@@H]3CC[C@H]32)C[C@@]2(CCCc3cc(Cl)ccc32)CO4)nc1 (single isomer, unassigned) [Example 100439]	0.619	2640	–
CO[C@@]1(C[C@@H](O)C2CC2)/C=C/C[C@H](C)[C@@H](C)S(=O)(=O)NC(=O)c2ccc3c(c2)N(C[C@@H]2CC[C@H]21)C[C@@]1(CCCc2cc(Cl)ccc21)CO3 (single isomer, unassigned) [Example 100460]	0.095	433	–
CO[C@@]1(C[C@@H](O)C2CC2)/C=C/C[C@H](C)[C@@H](C)S(=O)(=O)NC(=O)c2ccc3c(c2)N(C[C@@H]2CC[C@H]21)C[C@@]1(CCCc2cc(Cl)ccc21)CO3 (single isomer, unassigned) [Example 100461]	0.042	–	382
C[C@@H]1[C@@H](C)C/C=C/[C@@](C)(OCc2cc(F)cc(F)c2)[C@@H]2CC[C@H]2CN2C[C@@]3(CCCc4cc(Cl)ccc43)COc3ccc(cc32)C(=O)NS1(=O)=O (single isomer, unassigned) [Example 100474]	0.405	387	–

Structure (SMILES)	IC50 [1] [nM]	IC50 [2, 3] [nM]	IC50 [2, 4] [nM]
CO[C@@]1(CC(=O)[C@H](C)CN(C)C)/C=C/C[C@H](C)[C@@H](C)S(=O)(=O)NC(=O)c2ccc3c(c2)N(C[C@@H]2CC[C@H]21)C[C@@]1(CCCc2cc(Cl)ccc21)CO3 (single isomer, unassigned) [Example 100478]	3.47	4090	–
CO[C@@]1(CC(=O)N2CCN(C)C[C@H]2C)/C=C/C[C@H](C)[C@@H](C)S(=O)(=O)NC(=O)c2ccc3c(c2)N(C[C@@H]2CC[C@H]21)C[C@@]1(CCCc2cc(Cl)ccc21)CO3 (single isomer, unassigned) [Example 100479]	0.758	–	332
CO[C@@]1(CC(=O)N2CCN(C)C[C@H]2C)/C=C/C[C@H](C)[C@@H](C)S(=O)(=O)NC(=O)c2ccc3c(c2)N(C[C@@H]2CC[C@H]21)C[C@@]1(CCCc2cc(Cl)ccc21)CO3 (single isomer, unassigned) [Example 100480]	0.176	–	221
CC[C@]1(OCCN2CCOCC2)/C=C/C[C@H](C)[C@@H](C)S(=O)(=O)NC(=O)c2ccc3c(c2)N(C[C@@H]2CC[C@H]21)C[C@@]1(CCCc2cc(Cl)ccc21)CO3 (single isomer, unassigned) [Example 100481]	0.094	152	–
CO[C@@]1([C@H](C)O)CCC[C@H](C)[C@@H](C)S(=O)(=O)NC(=O)c2ccc3c(c2)N(C[C@@H]2CC[C@H]21)C[C@@]1(CCCc2cc(Cl)ccc21)CO3 (single isomer, unassigned) [Example 100482]	0.183	105	–
CO[C@@]1([C@H](C)O)/C=C/C[C@H](C)[C@@H](C)S(=O)(=O)NC(=O)c2ccc3c(c2)N(C[C@@H]2CC[C@H]21)C[C@@]1(CCCc2cc(Cl)ccc21)CO3 (single isomer, unassigned) [Example 100486]	0.381	102	–
CO[C@@]1(C[C@H](O)c2ccccn2)/C=C/C[C@H](C)[C@@H](C)S(=O)(=O)NC(=O)c2ccc3c(c2)N(C[C@@H]2CC[C@H]21)C[C@@]1(CCCc2cc(Cl)ccc21)CO3 (single isomer, unassigned) [Example 100489]	0.88	–	182
CO[C@@]1(C[C@H](O)c2ccccn2)/C=C/C[C@H](C)[C@@H](C)S(=O)(=O)NC(=O)c2ccc3c(c2)N(C[C@@H]2CC[C@H]21)C[C@@]1(CCCc2cc(Cl)ccc21)CO3 (single isomer, unassigned) [Example 100490]	0.292	–	511
C[C@@H]1[C@@H](C)CCC[C@@]2(OCCO[C@H]2C=O)[C@@H]2CC[C@H]2CN2C[C@@]3(CCCc4cc(Cl)ccc43)COc3ccc(cc32)C(=O)NS1(=O)=O (single isomer, unassigned) [Example 100495]	0.462	539	–
C=CCOC[C@]1(O)/C=C/C[C@H](C)[C@@H](C)S(=O)(=O)NC(=O)c2ccc3c(c2)N(C[C@@H]2CC[C@H]21)C[C@@]1(CCCc2cc(Cl)ccc21)CO3 (single isomer, unassigned) [Example 100496]	2.67	5060	–
CO[C@@]1(c2nccs2)/C=C/C[C@H](C)[C@@H](C)S(=O)(=O)NC(=O)c2ccc3c(c2)N(C[C@@H]2CC[C@H]21)C[C@@]1(CCCc2cc(Cl)ccc21)CO3 (single isomer, unassigned) [Example 100497]	0.064	106	–
COC(OC)c1cncc([C@@]2(O)/C=C/C[C@H](C)[C@@H](C)S(=O)(=O)NC(=O)c3ccc4c(c3)N(C[C@@H]3CC[C@H]32)C[C@@]2(CCCc3cc(Cl)ccc32)CO4)c1 (single isomer, unassigned) [Example 100507]	0.43	490	–
COC(OC)c1cncc([C@]2(O)/C=C/C[C@H](C)[C@@H](C)S(=O)(=O)NC(=O)c3ccc4c(c3)N(C[C@@H]3CC[C@H]32)C[C@@]2(CCCc3cc(Cl)ccc32)CO4)c1 (single isomer, unassigned) [Example 100510]	0.07	379	–
COC(OC)c1cncc([C@@]2(OC)/C=C/C[C@H](C)[C@@H](C)S(=O)(=O)NC(=O)c3ccc4c(c3)N(C[C@@H]3CC[C@H]32)C[C@@]2(CCCc3cc(Cl)ccc32)CO4)c1 (single isomer, unassigned) [Example 100511]	0.07	430	–
COC(OC)c1cncc([C@]2(OC)/C=C/C[C@H](C)[C@@H](C)S(=O)(=O)NC(=O)c3ccc4c(c3)N(C[C@@H]3CC[C@H]32)C[C@@]2(CCCc3cc(Cl)ccc32)CO4)c1 (single isomer, unassigned) [Example 100514]	0.088	231	–
CO[C@]1(c2nccs2)/C=C/C[C@H](C)[C@@H](C)S(=O)(=O)NC(=O)c2ccc3c(c2)N(C[C@@H]2CC[C@H]21)C[C@@]1(CCCc2cc(Cl)ccc21)CO3 (single isomer, unassigned) [Example 100522]	0.144	538	–
